Results as given in patent US4605744A, “Imidazole derivatives” (Hoffmann-La Roche Inc., priority 1985, dated 1986).
Where a name gives a salt, the structure may show the parent alone. Read-outs that look alike come from different tables or passages of the source.

Assays:
Test in all cases: In vitro antibacterial activity (MIC)
Format in all cases: cell-based
S. marcescens S147 = settings: Serratia marcescens; S. marcescens S147; read-out: MIC
Summary of the method: (§1)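 Mueller-Hinton broth carries the compound at 128–0.008 μg/ml; diluted drug may be used fresh or stored frozen at -10° to -70° C before use. Wells are seeded with a 10^-2 dilution of overnight culture and incubated overnight at 37° C.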

E. coli 5152 = test system: E. coli 5152
Summary of the method: as §1

E. coli 48 = test system: E. coli 48
Summary of the method: as §1

S. pneumoniae SC = settings: Streptococcus pneumoniae, read-out: MIC
Summary of the method: as §1

C. freundii CDC6 = settings: Citrobacter freundii, CDC6, C. freundii CDC6; read-out: MIC
Summary of the method: as §1

E. cloacae 214 = settings: Enterobacter cloacae, 214, E. cloacae 214; read-out: MIC
Summary of the method: as §1

E. aerogenes 503-478 = settings: Klebsiella aerogenes, 503478, E. aerogenes 503-478; read-out: MIC
Summary of the method: as §1

P. aeruginosa B = settings: Pseudomonas aeruginosa, read-out: MIC
Summary of the method: as §1

E. cloacae 5699 = settings: Enterobacter cloacae, 5699, E. cloacae 5699; read-out: MIC
Summary of the method: as §1

K. pneumoniae 35 = settings: Klebsiella pneumoniae; K. pneumoniae 35; read-out: MIC
Summary of the method: as §1

P. vulgaris ATCC 6380 = settings: Proteus vulgaris, ATCC6380, P. vulgaris ATCC 6380; read-out: MIC
Summary of the method: as §1

S. typhi P58A = settings: Salmonella enterica, TYPHI
Summary of the method: as §1

S. marcescens SM = settings: Serratia marcescens, read-out: MIC
Summary of the method: as §1

S. aureus Smith = settings: Staphylococcus aureus, S. aureus Smith; read-out: MIC
Summary of the method: as §1

S. marcescens 5805 = settings: Serratia marcescens, 5805, S. marcescens 5805; read-out: MIC
Summary of the method: as §1

P. vulgaris 100 = settings: Proteus vulgaris; P. vulgaris 100; read-out: MIC
Summary of the method: as §1

P. aeruginosa POW 151 = settings: Pseudomonas aeruginosa, POW151
Summary of the method: as §1

P. mirabilis 2 = settings: Proteus mirabilis, 2, P. mirabilis 2; read-out: MIC
Summary of the method: as §1

K. pneumoniae 503-964 = settings: Klebsiella pneumoniae, 503964; K. pneumoniae 503-964; read-out: MIC
Summary of the method: as §1

P. aeruginosa 503-56 = settings: Pseudomonas aeruginosa, 50356, P. aeruginosa 503-56; read-out: MIC
Summary of the method: as §1

P. aeruginosa Stone 130 = settings: Pseudomonas aeruginosa, STONE130, read-out: MIC
Summary of the method: as §1

K. pneumoniae 503-994 = settings: Klebsiella pneumoniae, 503994, K. pneumoniae 503-994; read-out: MIC
Summary of the method: as §1

E. cloacae P99 = settings: Enterobacter cloacae, P99, E. cloacae P99
Summary of the method: as §1

E. cloacae 9570A = settings: Enterobacter cloacae
Summary of the method: as §1

S. pneumoniae 6302 = settings: Streptococcus pneumoniae, 6302, S. pneumoniae 6302; read-out: MIC
Summary of the method: as §1

C. diversus CDC 1663-72 = settings: Citrobacter koseri, CDC166372; C. diversus CDC 1663-72; read-out: MIC
Summary of the method: as §1

E. cloacae 6951 = settings: Enterobacter cloacae, 6951, E. cloacae 6951; read-out: MIC
Summary of the method: as §1

P. aeruginosa 5712 = settings: Pseudomonas aeruginosa; P. aeruginosa 5712; read-out: MIC
Summary of the method: as §1

K. pneumoniae 8357 = test system: K. pneumoniae 8357
Summary of the method: as §1

S. faecalis C1 = settings: Enterococcus faecalis; S. faecalis C1; read-out: MIC
Summary of the method: as §1

S. marcescens S5 = settings: Serratia marcescens, S5, S. marcescens S5; read-out: MIC
Summary of the method: as §1

E. cloacae 9295 = settings: Enterobacter cloacae, 9295, E. cloacae 9295; read-out: MIC
Summary of the method: as §1

K. pneumoniae 5096 = settings: Klebsiella pneumoniae; K. pneumoniae 5096; read-out: MIC
Summary of the method: as §1

P. aeruginosa 5700 = settings: Pseudomonas aeruginosa, 5700, P. aeruginosa 5700; read-out: MIC
Summary of the method: as §1

S. pyogenes 503-782 = settings: Streptococcus pyogenes, 503782; S. pyogenes 503-782; read-out: MIC
Summary of the method: as §1

E. coli R-563 = settings: Escherichia coli, R563, E. coli R-563; read-out: MIC
Summary of the method: as §1

P. aeruginosa 6148B = settings: Pseudomonas aeruginosa, read-out: MIC
Summary of the method: as §1

S. aureus Giorgio = settings: Staphylococcus aureus, S. aureus Giorgio; read-out: MIC
Summary of the method: as §1

C. freundii 8ASM = settings: Citrobacter freundii, 8ASM, C. freundii 8ASM; read-out: MIC
Summary of the method: as §1

S. pneumoniae 6301 = settings: Streptococcus pneumoniae, 6301, S. pneumoniae 6301; read-out: MIC
Summary of the method: as §1

P. rettgeri ATCC 9250 = settings: Providencia rettgeri, ATCC9250, P. rettgeri ATCC 9250; read-out: MIC
Summary of the method: as §1

S. marcescens S2 = settings: Serratia marcescens; S. marcescens S2; read-out: MIC
Summary of the method: as §1

S. marcescens S3 = settings: Serratia marcescens; S. marcescens S3; read-out: MIC
Summary of the method: as §1

P. mirabilis 620A = settings: Proteus mirabilis, 620A, P. mirabilis 620A; read-out: MIC
Summary of the method: as §1

K. pneumoniae HE7 = settings: Klebsiella pneumoniae; K. pneumoniae HE7; read-out: MIC
Summary of the method: as §1

Compound CC1(C)S[C@@H]2[C@H](N=CN3CCC(C4=NCCN4)CC3)C(=O)N2[C@H]1C(=O)O [L, [2S-(2alpha,5alpha,6beta)]-6-[[[4-(4,5-dihydro-1H-imidazol-2-yl)-1-piperidinyl]methylene]amino]-3,3-dimethyl-7-oxo-4-thia-1-azabicyclo[3.2.0]heptane-2-carboxylic acid hydrochloride] has an MIC (S. marcescens S147) of 1 µg/mL, an MIC (E. coli 5152; Escherichia coli, 5152, E. coli 5152, read-out: MIC) of 32 µg/mL and an MIC (E. coli 48; Escherichia coli, 48, E. coli 48, read-out: MIC) of 0.5 µg/mL. It also gave an MIC (S. pneumoniae SC) of 1 µg/mL, an MIC (C. freundii CDC6) of 0.5 µg/mL and an MIC (E. cloacae 214) of 1 µg/mL. The MIC (E. aerogenes 503-478) was 8 µg/mL, the MIC (P. aeruginosa B) was 0.5 µg/mL and the MIC (E. cloacae 5699) was 1 µg/mL. The MIC (K. pneumoniae 35) was 2 µg/mL, the MIC (P. vulgaris ATCC 6380) was 0.25 µg/mL and the MIC (S. typhi P58A) was 0.5 µg/mL. It also gave an MIC (S. marcescens SM) of 1 µg/mL, an MIC (S. aureus Smith) of 4 µg/mL and an MIC (S. marcescens 5805) of 8 µg/mL. For the same compound, the MIC (P. vulgaris 100) was 32 µg/mL, the MIC (P. aeruginosa POW 151) was over 128 µg/mL and the MIC (P. mirabilis 2) was 1 µg/mL. It also gave an MIC (K. pneumoniae 503-964) of 2 µg/mL, an MIC (P. aeruginosa 503-56) of 64 µg/mL and an MIC (P. aeruginosa Stone 130) of over 128 µg/mL. It also gave an MIC (K. pneumoniae 503-994) of 1 µg/mL, an MIC (E. cloacae P99) of 0.25 µg/mL and an MIC (E. cloacae 9570A; read-out: MIC) of 2 µg/mL. For the same compound, the MIC (S. pneumoniae 6302) was 1 µg/mL, the MIC (C. diversus CDC 1663-72) was 0.5 µg/mL and the MIC (E. cloacae 6951) was 8 µg/mL. It also gave an MIC (P. aeruginosa 5712) of over 128 µg/mL, an MIC (K. pneumoniae 8357; Klebsiella pneumoniae, 8357, K. pneumoniae 8357, read-out: MIC) of 2 µg/mL and an MIC (S. faecalis C1) of 32 µg/mL. The MIC (S. marcescens S5) was 4 µg/mL, the MIC (E. cloacae 9295) was 2 µg/mL and the MIC (K. pneumoniae 5096) was 64 µg/mL. The MIC (P. aeruginosa 5700) was 2 µg/mL, the MIC (S. pyogenes 503-782) was 32 µg/mL and the MIC (E. coli R-563) was 0.25 µg/mL. The MIC (P. aeruginosa 6148B) was 128 µg/mL, the MIC (S. aureus Giorgio) was 2 µg/mL and the MIC (C. freundii 8ASM) was 0.25 µg/mL. The MIC (S. pneumoniae 6301) was 0.5 µg/mL, the MIC (P. rettgeri ATCC 9250) was 1 µg/mL and the MIC (S. marcescens S2) was 0.5 µg/mL. It also gave an MIC (S. marcescens S3) of 0.5 µg/mL, an MIC (P. mirabilis 620A) of over 128 µg/mL and an MIC (K. pneumoniae HE7) of over 128 µg/mL.
CC1(C)S[C@@H]2[C@H](N=CN3CCC(CCCn4ccnc4[N+](=O)[O-])CC3)C(=O)N2[C@H]1C(=O)O [K, [2S-(2alpha,5alpha,6beta)]-6-[[[4-[3-(2-nitro-1H-imidazol-1-yl)propyl]piperidinyl]methylene]amino]-3,3-dimethyl-7-oxo-4-thia-1-azabicyclo[3.2.0]heptane-2-carboxylic acid hydrochloride 0.66 molar hydrate] showed an MIC (S. marcescens S147) of 2 µg/mL, an MIC (E. coli 5152; Escherichia coli, 5152) of 8 µg/mL and an MIC (E. coli 48; Escherichia coli, 48) of 0.25 µg/mL. It also gave an MIC (S. pneumoniae SC) of 1 µg/mL, an MIC (C. freundii CDC6) of 0.5 µg/mL and an MIC (E. cloacae 214) of 0.5 µg/mL. For the same compound, the MIC (E. aerogenes 503-478) was 4 µg/mL, the MIC (P. aeruginosa B) was 0.25 µg/mL and the MIC (E. cloacae 5699) was 1 µg/mL. It also gave an MIC (K. pneumoniae 35) of 0.5 µg/mL, an MIC (P. vulgaris ATCC 6380) of 0.5 µg/mL and an MIC (S. typhi P58A) of 0.5 µg/mL. It also gave an MIC (S. marcescens SM) of 2 µg/mL, an MIC (S. aureus Smith) of 8 µg/mL and an MIC (S. marcescens 5805) of 8 µg/mL. It also gave an MIC (P. vulgaris 100) of 16 µg/mL, an MIC (P. aeruginosa POW 151) of over 128 µg/mL and an MIC (P. mirabilis 2) of 4 µg/mL. For the same compound, the MIC (K. pneumoniae 503-964) was 0.5 µg/mL, the MIC (P. aeruginosa 503-56) was over 128 µg/mL and the MIC (P. aeruginosa Stone 130) was over 128 µg/mL. It also gave an MIC (K. pneumoniae 503-994) of 0.25 µg/mL, an MIC (E. cloacae P99) of 0.5 µg/mL and an MIC (E. cloacae 9570A; 9570A) of 1 µg/mL. The MIC (S. pneumoniae 6302) was 1 µg/mL, the MIC (C. diversus CDC 1663-72) was 0.25 µg/mL and the MIC (E. cloacae 6951) was 16 µg/mL. The MIC (P. aeruginosa 5712) was over 128 µg/mL, the MIC (K. pneumoniae 8357; Klebsiella pneumoniae, 8357) was 2 µg/mL and the MIC (S. faecalis C1) was 128 µg/mL. It also gave an MIC (S. marcescens S5) of 8 µg/mL, an MIC (E. cloacae 9295) of 1 µg/mL and an MIC (K. pneumoniae 5096) of 16 µg/mL. The MIC (P. aeruginosa 5700) was 4 µg/mL, the MIC (S. pyogenes 503-782) was 128 µg/mL and the MIC (E. coli R-563) was 0.5 µg/mL. For the same compound, the MIC (P. aeruginosa 6148B) was over 128 µg/mL, the MIC (S. aureus Giorgio) was 8 µg/mL and the MIC (C. freundii 8ASM) was 0.25 µg/mL. For the same compound, the MIC (S. pneumoniae 6301) was 1 µg/mL, the MIC (P. rettgeri ATCC 9250) was 2 µg/mL and the MIC (S. marcescens S2) was 2 µg/mL. For the same compound, the MIC (S. marcescens S3) was 4 µg/mL, the MIC (P. mirabilis 620A) was 16 µg/mL and the MIC (K. pneumoniae HE7) was 64 µg/mL.
